{"source": "patent US20260165988A1", "about": "“PHARMACEUTICAL COMPOSITION FOR PREVENTING OR TREATING HEARING LOSS COMPRISING AMMONIUM LACTATE AS ACTIVE INGREDIENT” (KOREA UNIVERSITY RESEARCH AND BUSINESS FOUNDATION, priority 2022, published 2026)", "test_system": "hair cells in the lateral line of zebrafish", "assay": "Analysis of hair cells in zebrafish larvae: protection against gentamicin-induced hair cell damage", "assay_type": "in vivo", "description": "Zebrafish larvae (Wild type, Brn3c: EGFP, etc.) were cultured in the breeding room of our research institute. Each larva was cultured in embryo medium (15 mM NaCl, 0.5 mM KCl, 1 mM CaCl2, 1 mM MgSO4, 0.15 mM KH2PO4, 0.05 mM […], and 0.7 mM NaHCO3).\nGentamicin, an ototoxicity-inducing substance, was administered to zebrafish 5 days after fertilization, and the concentration of […] (LC 50) that induces 50% damage to hair cells in the lateral line of zebrafish as well as the time were determined. In the study results, 50 μM gentamicin was chosen since approximately 50% of the hair cells were damaged when administered for 1 hour. The effect was observed when 10 μM, 100 μM, 500 μM, and 1000 μM ammonium lactate were co-administered with 50 μM gentamicin for 1 hour.\nThere were four sites in hair cells of zebrafish, including orbits (SO1 and SO2), ear (O1), and larynx (OC1), and the number of hair cells was analyzed using a microscope (fluorescence microscope, confocal microscope, etc.). The effects of candidate substances capable of suppressing damage to hair cells caused by gentamicin were compared and analyzed by administering the candidate substances to zebrafish larvae at different concentrations.\nTo verify the protective effect of ammonium lactate on hair cells in zebrafish, ammonium lactate and gentamicin were co-administered to zebrafish, and the viability of hair cells was compared with that of the control group.", "data": [{"compound": "CC(O)C(=O)O.N", "note": "(centres unmarked) [ammonium lactate]", "values": [{"measurement": "viability of hair cells (trend)", "setting": "10 μM, 100 μM, 500 μM and 1000 μM ammonium lactate co-administered with 50 μM gentamicin", "result": "increased in a concentration-dependent manner"}, {"measurement": "increase in the viability of hair cells", "setting": "100 μM ammonium lactate + 50 μM gentamicin", "result": "approximately 10%"}, {"measurement": "number of hair cells", "setting": "100 μM ammonium lactate co-administered with 50 μM gentamicin for 1 hour, gentamicin only 26", "result": 28}, {"measurement": "increase in the viability of hair cells", "setting": "500 μM ammonium lactate + 50 μM gentamicin", "result": "approximately 10%"}, {"measurement": "number of hair cells", "setting": "500 μM ammonium lactate co-administered with 50 μM gentamicin for 1 hour, gentamicin only 26", "result": 29}, {"measurement": "increase in the viability of hair cells", "setting": "1000 μM ammonium lactate + 50 μM gentamicin", "result": "≥ 60", "unit": "%"}, {"measurement": "number of hair cells", "setting": "1000 μM ammonium lactate co-administered with 50 μM gentamicin for 1 hour, gentamicin only 26", "result": 42}, {"measurement": "protective effect on hair cells (conclusion)", "setting": "zebrafish, gentamicin-induced damage", "result": "has a protective effect on hair cells"}]}, {"compound": "gentamicin [reference compound]", "values": [{"measurement": "hair cells damaged", "setting": "50 μM gentamicin administered for 1 hour, zebrafish 5 days after fertilization", "result": "approximately 50%"}, {"measurement": "decrease in the viability of hair cells", "setting": "50 μM gentamicin only vs untreated control", "result": 50, "unit": "%"}, {"measurement": "number of hair cells", "setting": "50 μM gentamicin only, no ammonium lactate, untreated control 53", "result": 26}]}]}
